# Measurements: publication PMC7029660, “Functional Division Between the RecA1 and RecA2 Proteins in Myxococcus xanthus” (Frontiers in Microbiology, 2020)
# Target: T1, RecA1 (Myxococcus xanthus, UniProt Q1DCC5)
# T1 construct: gene recA; full-length gene in pET15b, expressed in E. coli BL21(DE3), Ni-NTA purified
# T1 sequence (Q1DCC5 1-342): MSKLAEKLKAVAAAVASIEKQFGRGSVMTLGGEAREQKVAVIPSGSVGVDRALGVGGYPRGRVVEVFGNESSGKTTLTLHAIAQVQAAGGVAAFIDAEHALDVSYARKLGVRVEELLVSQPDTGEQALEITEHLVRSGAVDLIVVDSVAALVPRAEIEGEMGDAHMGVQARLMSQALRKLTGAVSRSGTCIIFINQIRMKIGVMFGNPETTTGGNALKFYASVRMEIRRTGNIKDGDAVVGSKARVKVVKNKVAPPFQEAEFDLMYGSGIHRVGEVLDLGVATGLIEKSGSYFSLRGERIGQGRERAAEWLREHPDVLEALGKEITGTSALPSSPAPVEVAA
# Test: ATPase assay, released inorganic phosphate (kit)
# Assay type: biochemical
# Details: 3 mM ATP, 5 mM MgCl2, 1 mM CaCl2, pH 7.4, 32 °C; with or without ssDNA or dsDNA
smiles,measurement,value
Nc1ncnc2c1ncn2[C@@H]1O[C@H](COP(=O)(O)OP(=O)(O)OP(=O)(O)O)[C@@H](O)[C@H]1O [ATP],"ATPase assay, released inorganic phosphate (kit)",RecA1 and RecA2 both exhibited low ATPase activities
